Data from patent US20140248212A1, “NON-IMMUNOGENIC POSITRON EMISSION TOMOGRAPHY REPORTER GENE SYSTEMS” (THE REGENTS OF THE UNIVERSITY OF CALIFORNIA, priority 2011, published 2014).
Where a chain is given by its changes, count along the chain named. In names and notes the source's numbering stands.

Experiments:
[1] = target: T1, TK2-N93D/L109F (Homo sapiens, UniProt O00142, L109F/N93D); test: Kinetic analyses of recombinant TK2 (NADH-dependent enzyme coupled assay), TK2-N93D/L109F; assay type: biochemical
T1 construct: hexahistidine (N, cleaved yes); SUMO (N, cleaved yes); made in house; host or cells: Escherichia coli BL21 (DE3) C41, modified pET14b
T1 sequence (O00142 51-265 N93D/L109F): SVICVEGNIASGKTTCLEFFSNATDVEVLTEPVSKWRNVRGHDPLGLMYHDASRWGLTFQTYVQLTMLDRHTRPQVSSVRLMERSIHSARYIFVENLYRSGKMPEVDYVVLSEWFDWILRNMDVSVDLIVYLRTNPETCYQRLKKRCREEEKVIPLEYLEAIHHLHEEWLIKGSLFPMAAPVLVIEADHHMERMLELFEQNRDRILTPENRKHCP
Protocol: FIG. 34 provides a table that illustrates the kinetics of the phosphorylation of D and L-nucleosides by the TK2 mutants. Kinase assays were performed with recombinant protein with 200 μM of the listed substrate.

[2] = target: T2, TK2-L109F (Homo sapiens, UniProt O00142, L109F); test: Kinetic analyses of recombinant TK2 (NADH-dependent enzyme coupled assay), TK2-L109F; details: 37° C., 1 mM ATP
T2 sequence (O00142 51-265 L109F): T1 sequence (O00142 51-265 N93D/L109F) with D43N
Protocol: (§1) A NADH-dependent enzyme coupled assay (see, e.g. Agarwal, K. C., et al. (1978) Methods Enzymol. 51, 483-490) was used. Using a Cary UV spectrophotometer, measurements were made in triplicate at 37° C. in a buffer containing 100 mM Tris, pH 7.5, 100 mM KCl, 5 mM MgCl2, and 1 mM ATP. For data in which kobs is given, a single nucleoside concentration of 200 μM was used. For data in which both Km and kcat are given, the nucleoside concentration was varied between 15 and 500 μM. TK2 concentration in the cuvette was 400 nM. Data were fit to the Michaelis-Menten equation using SigmaPlot. […] Therefore, all of the kinetic data using the Michaelis-Menten equation without the Hill coefficient is presented.

[3] = target: T3, TK2-N93D (Homo sapiens, UniProt O00142, N93D); test: Kinetic analyses of recombinant TK2 (NADH-dependent enzyme coupled assay), TK2-N93D; details: 37° C., 1 mM ATP
T3 sequence (O00142 51-265 N93D): T1 sequence (O00142 51-265 N93D/L109F) with F59L
Protocol: as §1

[4] = tested on: Baf-3 cells; test: Test of mutant htk2 reporter genes in Baf-3 cells; assay type: cell-based
Description: The sensitivity of the described mutant htk2 imaging reporter genes can be evaluated through cell culture assays and PET imaging in mouse tumor models. […] Further tests regarding the effect of expressing these reporter genes on various cells can be used to determine other potential targets. […] Several enhanced htk2 mutant reporter genes have been designed and tested. Though the examples herein describe different probes and investigate the L probes mainly in mice, other mammals and in particular, humans are also within the scope of the invention. Silico models can be used to derive additional enhanced mutants from human htk2.

[5] = Biodistribution of PET reporter probes in mice (microPET/CT); assay type: in vivo, C57/BL6 mice; details: for biodistribution in mice: C57/BL6 mice, FIG. 25B, no retention in normal tissues except clearance routes (GI tract, bladder)
Protocol: To identify candidate PRPs, eight nucleoside analogs (FIG. 7A) were synthesized that were amenable to ^18F labeling (the first criterion for PRPs). To identify PRP candidates with rapid clearance from normal tissues and low overall background (second criterion for PRGs), biodistribution studies in mice were performed. It was observed that natural (D) nucleosides had higher background than non-natural (L) nucleoside analogs. […] The next step was to identify a human nucleoside kinase that phosphorylates L-[^18F]FMAU and L-[^18F]FEAU, and can be converted into a new PRG that matches four criteria:
Initially, a group of nucleoside analogs amenable to fluorine-18 labeling were identified. These PET tracers, 5 of which were novel, were then screened to determine their biodistribution in C57/BL6 mice (n=3 for each PET tracer) through dynamic microPET scans. […] Rational design is utilized to introduce mutations into human nucleoside kinase thymidine kinase 2 (TK2) to improve the affinity of the kinase for the top candidate probe. The sensitivity and specificity of the novel PET reporter probe/gene pair was then determined in vitro and in vivo using a murine cancer model.
Animal studies were approved and carried out according to specific guidelines. C57/BL6 mice were injected with the indicated probe and underwent micro-PET/CT analyses at 1- and 3-h post probe injection (Inveon, Siemens Medical Solutions USA Inc.; microCAT; Imtek Inc.). For tumor imaging studies, SCID mice were injected subcutaneously on day −7 in the right and left flanks with 1×10^6 L1210-PRG-expressing cells in 50% v/v phosphate-buffered saline and 50% v/v Matrigel™ (BD Biosciences). For imaging experiments, mice were kept warm and under gas anesthesia (2% v/v isoflurane) and were injected intravenously with 200 μCi of ^18F-labeled probes. A 3-h interval was allowed between probe administration and microPET/CT scanning Static microPET images were acquired for 600 s. Image data were evaluated in three-dimensional histograms and reconstructed with a zoom factor of 2.1 using three-dimensional ordered set expectation maximization (OSEM) with 2 iterations followed by MAP (maximum a posteriori) reconstruction with 18 iterations (beta=0.1). Images were analyzed using OsiriX Imaging Software Version 3.8.

[6] = Microsomal stability (glucuronidation conditions); assay type: in vitro ADME; details: glucuronidation conditions (data not shown)
Description: Regarding condition (d), one has obtained the microsomal stability profiles for 3 out of 4 compounds (FCU, FBU and FddUrd using the glucuronidation conditions).

[7] = tested on: TK1; test: [3H]dT uptake inhibition assay (competition with thymidine for TK1); assay type: cell-based
Description: FIG. 6 provides a graph that illustrates data regarding an assay to determine whether candidate probes compete with thymidine for TK1.
Further evaluations can be carried out to precisely assess the affinity of these candidate probes for purified recombinant TK1.

[8] = tested on: L1210 cells; test: Effect of PRG overexpression on growth and dNTP pools of L1210 cells; assay type: cell-based, murine
Protocol: FIG. 9 provides graphs of data that illustrate how the overexpression of sr39tk affects cell growth and intracellular dNTP pools. L1210 cells were engineered to express: TK2-N93D (▪), TK2 (▴), HSV1-sr39tk (▾), and control vector eYFP (♦). Various graphs show the growth of the L1210 cells in (A) regular media and (B) regular media supplemented with 10 μM thymidine (dT). Other graphs show total cellular dNTP pools (measured by LC-MS) in cells grown in (C) regular media and (D) regular media supplemented with 10 μM dT; (*=below limit of detection).
L1210 cells transduced to overexpress the listed genes were grown in RPMI media (+/−10 μM dT) for 48 hours. The cells were then harvested and pyrimidine nucleotide pools were obtained via […].
To overcome the negative feedback limitation of TK2, a point mutation-N93D, was engineered. The work done by Piskur and colleagues on the structurally related Drosophila melanogaster deoxyribonucleoside kinase (see, e.g. Welin, M., et al. FEBS J 272:3733-3742, 2005) led one to predict that the N93D mutation would reduce the feedback inhibition of TK2 by dTTP. […] We then determined whether the enhanced resistance to feedback inhibition translates into improved TK2-N93D catalytic activity towards the L-[^18F]FMAU substrate. […]

With `Cc1cn([C@H]2C[C@H](O)[C@@H](CO)O2)c(=O)[nH]c1=O` [D-dT, D-thymidine] as the molecule, how does the “decrease of kcat compared with TK2” value ([1]; 37° C., 1 mM ATP) read?
The value was 49%.

What about the “change of Km by the L109F mutation” value [2] of the same molecule?
Its value is “decrease in the Km”.

And the “decrease of kcat relative to WT TK2” value [3]?
Its value is 77%.

And the “decrease of kcat/Km compared with WT TK2” value [3]?
Its value is 60%.

Which “test of reporter system with probe” value [4] does the source give for `CCc1cn([C@H]2O[C@@H](CO)[C@H](O)[C@H]2F)c(=O)[nH]c1=O` [L-[^18F]FEAU] here?
Its value is “successfully tested”.

What about the “overall background (biodistribution)” value ([5]; candidate 18F nucleoside analog probes in mice, FIG. 7B) of the same molecule?
Its value is “lowest overall background”.

What does the source list for `Cc1cn([C@@H]2C[C@@H](O)[C@H](CO)O2)c(=O)[nH]c1=O` [L-dT]?
increase of kcat compared with TK2 ([1]; 37° C., 1 mM ATP): 54%; change of Km by the L109F mutation [2]: decrease in the Km; decrease of kcat relative to WT TK2 [3]: 48%

Which “microsomal stability over time” value [6] does the source give for `O=c1[nH]c(=O)n([C@H]2C[C@H]([18F])[C@@H](CO)O2)cc1Br` [^18F-FBU, 3′-[^18F]fluoro-2′,3′-dideoxy-5-bromouridine] here?
The value was “decrease stability over time”.

What about the biodistribution in mice [5] of the same molecule?
Its biodistribution in mice is “excellent biodistribution”.

And the “phosphorylation by endogenous mammalian thymidine kinases” value [7]?
Its value is “cannot be phosphorylated”.

Which results are given for `O=c1[nH]c(=O)n([C@H]2C[C@H]([18F])[C@@H](CO)O2)cc1Cl` [^18F-FCU, 3′-[^18F]fluoro-2′,3′-dideoxy-5-chlorouridine]?
microsomal stability over time [6]: only FBU showed decrease stability over time; biodistribution in mice [5]: excellent biodistribution; phosphorylation by endogenous mammalian thymidine kinases [7]: cannot be phosphorylated

What does the source list for `O=c1[nH]c(=O)n([C@H]2C[C@H]([18F])[C@@H](CO)O2)cc1F` [^18F-FFU, 3′-[^18F]fluoro-2′,3′-dideoxy-5-fluorouridine]?
biodistribution in mice [5]: excellent biodistribution; phosphorylation by endogenous mammalian thymidine kinases [7]: cannot be phosphorylated

Which results are given for `O=c1ccn([C@H]2C[C@H]([18F])[C@@H](CO)O2)c(=O)[nH]1` [^18F-FddUrd, 3′-[^18F]fluoro-2′,3′-dideoxy-uridine]?
microsomal stability over time [6]: only FBU showed decrease stability over time; biodistribution in mice [5]: excellent biodistribution; phosphorylation by endogenous mammalian thymidine kinases [7]: cannot be phosphorylated

Which “kobs as percentage of that of TK2” value ([1]; 200 μM substrate) does the source give for `Nc1ccn([C@H]2C[C@H](O)[C@@H](CO)O2)c(=O)n1` [dC, deoxycytidine] here?
Its value is 62%.

B1: TK2-N93D: truncated human thymidine kinase 2 with N93D point mutation, PET reporter gene product (SEQ ID NO: 3) (protein, listed as Homo sapiens)
chain: MSVICVEGNIASGKTTCLEFFSNATDVEVLTEPVSKWRNVRGHDPLGLMYHDASRWGLTLQTYVQLTMLDRHTRPQVSSVRLMERSIHSARYIFVENLYRSGKMPEVDYVVLSEWFDWILRNMDVSVDLIVYLRTNPETCYQRLKKRCREEEKVIPLEYLEAIHHLHEEWLIKGSLFPMAAPVLVIEADHHMERMLELFEQNRDRILTPENRKHCP
For B1, which “growth rate of transduced cells” value [8] is on record?
The value was “did not affect”.

And the “intracellular dNTP pools” value [8]?
Its value is “did not affect”.
